Publication PMC5838106, “Cathelicidin promotes inflammation by enabling binding of self-RNA to cell surface scavenger receptors” (Scientific Reports, 2018)
Where no end group is shown, it is not given here.

Key:
[1] = tested on: NHEKs; assay: Immunoblotting of TBK1-AKT-IRF3 pathway and p38 MAPK phosphorylation; type: cell-based, human; conditions: peptide 2.5 μM 10 minutes, then U1 RNA 2.5 μg/mL 30 minutes or 2 hours
Text: Figure 2 Structure and cell binding of cathelicidin and dsRNA. (a) Structures of LL37, LL34, and LL34(I20P) bound to dsRNA were solved using SAXS. SAXS data is plotted as the scattering intensity I(q) vs. the momentum transfer vector q. LL34 (blue) and LL34(I20P) (green) condense dsRNA into square lattices with first peak positions of q10 = 0.167 Å^−1 and 0.170 Å^−1, respectively. Higher order Bragg reflections due to scattering of the square lattice of LL34 and LL34(I20P) are labeled for both complexes. In comparison, LL37 (magenta) condenses dsRNA into a columnar lattice with short-ranged order, with a first peak position of q1 = 0.172 Å^−1. (b) Linear fits of Bragg peak positions indicate that LL34-dsRNA (blue) and LL34(I20P)-dsRNA (green) complexes have inter-dsRNA spacings of 3.76 nm and 3.70 nm, respectively. Each reflection corresponding to the peaks in a for LL34 and LL34(I20P) are labeled. […]
NHEKs were lysed in a denaturing lysis buffer containing 20 mM HEPES pH 7.4, 250 mM NaCl, 2 mM EDTA, and 1% SDS supplemented with completed proteinase inhibitor cocktail as well as 50 mM sodium floride, 5mM N-ethylmaleimide, 100 μM hemin chloride to maximally preserve protein post-translational modifications as described previously. […] Protein concentrations were measured by BCA protein assay kit (Thermofisher). […]

[2] = tested on: THP1 cells; assay: U1 RNA co-association with early endosome (EEA1) in THP1; type: cell-based, human; conditions: PMA-treated THP1, 37 °C, 4 hours
Protocol: NHEKs were grown on 8-well chamber slides (Thermofisher Scientific). After indicated treatments, cells were fixed in 4% paraformaldehyde (PFA) (Thermofisher Scientific) for 10 minutes and blocked with 3% bovine serum albumin, 0.2 M Glycine (Sigma) with or without 1 mg/mL saponin (Sigma) prior to incubating with primary antibodies followed by appropriate 488- or 568-coupled secondary antibodies, or 488-streptavidin conjugate. Nuclei were counterstained with DAPI. All images were taken with an Olympus BX41 microscope (widefield), Zeiss LSM510 confocal microscope, or Nikon A1R Confocal STORM microscope as indicated.
Figure S2. a) PMA-treated THP1 cultured at 37 °C for 4 hours with U1 RNA and cathelicidin peptides. Early endosomal antigen 1 (EEA1) is stained red, U1 RNA is stained green and nuclei were visualized with DAPI (blue). Scale bar represents 10 μm. b) IL-6 mRNA in NHEKs cultured with FPR1 inhibitor Boc-MLF (1 µM) or FPR2 inhibitor WRW4 (1 µM) for 1 hour, treated with LL37 (2.5 µM) and U1 RNA (2.5 µg/mL) for a further 6 hours. (n = 3). c) IL-6 mRNA in NHEKs cultured with G-protein coupled receptor inhibitor pertussis toxin (0.5 µg/mL) for 1 hour, treated with LL37 (2.5 µM) and U1 RNA (2.5 µg/mL) for a further 6 hours. (n = 3). […]

Substance | phosphorylation in the TBK1-AKT-IRF3 pathway and p38 MAPK [1] | co-association of U1 RNA with the early endosome [2]
LL37 | increased | induced partial co-association with the early endosome
LLGDFFRKSKEKIGKEFKRIVQRIKDFLRNLVPR [LL34] | increased | induced partial co-association with the early endosome
